Reference: patent US20200016159A1, “N3-CYCLICALLY SUBSTITUTED THIENOURACILS AND USE THEREOF” (Bayer Aktiengesellschaft, priority 2016, published 2020)
pIC50: −log10 of the molar value.

Biological target: T1, human adenosine A2b receptor (Homo sapiens, UniProt P29275)
T1 sequence (P29275 1-332): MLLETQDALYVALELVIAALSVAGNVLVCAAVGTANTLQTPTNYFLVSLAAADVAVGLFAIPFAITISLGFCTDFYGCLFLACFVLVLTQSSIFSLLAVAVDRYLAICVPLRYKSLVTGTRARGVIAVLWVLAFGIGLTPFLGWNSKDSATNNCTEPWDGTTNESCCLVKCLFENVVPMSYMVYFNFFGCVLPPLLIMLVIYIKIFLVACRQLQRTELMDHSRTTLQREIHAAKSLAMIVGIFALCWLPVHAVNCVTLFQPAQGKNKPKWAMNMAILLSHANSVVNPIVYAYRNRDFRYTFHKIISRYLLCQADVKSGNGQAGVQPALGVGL
Experiment: Cellular in vitro reporter gene test for A2b receptor activity (antagonism of NECA)
Assay type: cell-based
Set-up: expressed in transfected cells; host or cells: CHO-K1 (Chinese hamster ovary) with CRE-luciferase reporter
Conditions: recombinant CHO-K1 cells, CRE-luciferase reporter, co-incubation with EC50 concentration of NECA, 3 hours
In short: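 CHO-K1 cells expressing recombinant human A2b receptor plus a CRE-driven firefly luciferase reporter. Compounds co-incubated with NECA at its same-day EC50 concentration; luminescence read 3 hours after NECA addition. IC50 values, sometimes means of several determinations rounded to two significant figures.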

pIC50 | SMILES
8.24 | CCCn1c(=O)n(C2CC2C)c(=O)c2c(C)c(CN3CCNC3=O)sc21 (single isomer, unassigned) [Example 228, 5-Methyl-3-(2-methylcyclopropyl)-6-[(2-oxoimidazolidin-1-yl)methyl]-1-propylthieno[2,3-d]pyrimidine-2,4(1H,3H)-dione]
8.92 | CCCn1c(=O)n(C2CC2C)c(=O)c2c(C)c(CN3CCNC3=O)sc21 (single isomer, unassigned) [Example 229, 5-Methyl-3-(2-methylcyclopropyl)-6-[(2-oxoimidazolidin-1-yl)methyl]-1-propylthieno[2,3-d]pyrimidine-2,4(1H,3H)-dione]
9.07 | Cc1c(CN2CCNC2=O)sc2c1c(=O)n(C1CC1C)c(=O)n2CCF (single isomer, unassigned) [Example 232, 1-(2-Fluoroethyl)-5-methyl-3-(2-methylcyclopropyl)-6-[(2-oxoimidazolidin-1-yl)methyl]thieno[2,3-d]pyrimidine-2,4(1H,3H)-dione]
7.96 | Cc1c(CN2CCNC2=O)sc2c1c(=O)n(C1CC1C)c(=O)n2CCF (single isomer, unassigned) [Example 233, 1-(2-Fluoroethyl)-5-methyl-3-(2-methylcyclopropyl)-6-[(2-oxoimidazolidin-1-yl)methyl]thieno[2,3-d]pyrimidine-2,4(1H,3H)-dione]
7.74 | Cc1c(CN2CCNC2=O)sc2c1c(=O)n(C1CC1C)c(=O)n2CC(F)F (single isomer, unassigned) [Example 235, 1-(2,2-Difluoroethyl)-5-methyl-3-(2-methylcyclopropyl)-6-[(2-oxoimidazolidin-1-yl)methyl]thieno[2,3-d]pyrimidine-2,4(1H,3H)-dione]
8.92 | Cc1c(CN2CCNC2=O)sc2c1c(=O)n(C1CC1C)c(=O)n2CC(F)F (single isomer, unassigned) [Example 236, 1-(2,2-Difluoroethyl)-5-methyl-3-(2-methylcyclopropyl)-6-[(2-oxoimidazolidin-1-yl)methyl]thieno[2,3-d]pyrimidine-2,4(1H,3H)-dione]
7.62 | Cc1c(CN2CCNC2=O)sc2c1c(=O)n(C1CC1C)c(=O)n2CC(F)(F)F (single isomer, unassigned) [Example 238, 5-Methyl-3-(2-methylcyclopropyl)-6-[(2-oxoimidazolidin-1-yl)methyl]-1-(2,2,2-trifluoroethyl)thieno[2,3-d]pyrimidine-2,4(1H,3H)-dione]
8.33 | Cc1c(CN2CCNC2=O)sc2c1c(=O)n(C1CC1C)c(=O)n2CC(F)(F)F (single isomer, unassigned) [Example 239, 5-Methyl-3-(2-methylcyclopropyl)-6-[(2-oxoimidazolidin-1-yl)methyl]-1-(2,2,2-trifluoroethyl)thieno[2,3-d]pyrimidine-2,4(1H,3H)-dione]
8.62 | Cc1c(CN2CCNC2=O)sc2c1c(=O)n(C1CC1C)c(=O)n2CCC(F)(F)F (single isomer, unassigned) [Example 240, 5-Methyl-3-(2-methylcyclopropyl)-6-[(2-oxoimidazolidin-1-yl)methyl]-1-(3,3,3-trifluoropropyl)thieno[2,3-d]pyrimidine-2,4(1H,3H)-dione]
8.15 | Cc1c(CN2CCNC2=O)sc2c1c(=O)n(C1CC1C)c(=O)n2CCC(F)(F)F (single isomer, unassigned) [Example 241, 5-Methyl-3-(2-methylcyclopropyl)-6-[(2-oxoimidazolidin-1-yl)methyl]-1-(3,3,3-trifluoropropyl)thieno[2,3-d]pyrimidine-2,4(1H,3H)-dione]
8.08 | Cc1c(CN2CCNC2=O)sc2c1c(=O)n(C1CC1C)c(=O)n2CCCC(F)(F)F (single isomer, unassigned) [Example 243, 5-Methyl-3-(2-methylcyclopropyl)-6-[(2-oxoimidazolidin-1-yl)methyl]-1-(4,4,4-trifluorobutyl)thieno[2,3-d]pyrimidine-2,4(1H,3H)-dione]
8.48 | Cc1c(CN2CCNC2=O)sc2c1c(=O)n(C1CC1C)c(=O)n2CCCC(F)(F)F (single isomer, unassigned) [Example 244, 5-Methyl-3-(2-methylcyclopropyl)-6-[(2-oxoimidazolidin-1-yl)methyl]-1-(4,4,4-trifluorobutyl)thieno[2,3-d]pyrimidine-2,4(1H,3H)-dione]
7.66 | Cc1c(CN2CCNC2=O)sc2c1c(=O)n(C1CC1C)c(=O)n2CCC(F)(F)C(F)F (single isomer, unassigned) [Example 246, 5-Methyl-3-(2-methylcyclopropyl)-6-[(2-oxoimidazolidin-1-yl)methyl]-1-(3,3,4,4-tetrafluorobutyl)thieno[2,3-d]pyrimidine-2,4(1H,3H)-dione]
8.46 | Cc1c(CN2CCNC2=O)sc2c1c(=O)n(C1CC1C)c(=O)n2CCC(F)(F)C(F)F (single isomer, unassigned) [Example 247, 5-Methyl-3-(2-methylcyclopropyl)-6-[(2-oxoimidazolidin-1-yl)methyl]-1-(3,3,4,4-tetrafluorobutyl)thieno[2,3-d]pyrimidine-2,4(1H,3H)-dione]
8.96 | Cc1c(CN2CCNC2=O)sc2c1c(=O)n([C@H]1C[C@@H]1C)c(=O)n2CC1CC1(F)F (single isomer, unassigned) [Example 250]
8.20 | Cc1c(CN2CCNC2=O)sc2c1c(=O)n([C@H]1C[C@@H]1C)c(=O)n2CC1CC1(F)F (single isomer, unassigned) [Example 251]
8.57 | Cc1c(CN2CCNC2=O)sc2c1c(=O)n(C1CC1C)c(=O)n2CC1CC(F)(F)C1 (single isomer, unassigned) [Example 253, 1-[(3,3-Difluorocyclobutyl)methyl]-5-methyl-3-(2-methylcyclopropyl)-6-[(2-oxoimidazolidin-1-yl)methyl]thieno[2,3-d]pyrimidine-2,4(1H,3H)-dione]
8.14 | Cc1c(CN2CCNC2=O)sc2c1c(=O)n(C1CC1C)c(=O)n2CC1CC(F)(F)C1 (single isomer, unassigned) [Example 254, 1-[(3,3-Difluorocyclobutyl)methyl]-5-methyl-3-(2-methylcyclopropyl)-6-[(2-oxoimidazolidin-1-yl)methyl]thieno[2,3-d]pyrimidine-2,4(1H,3H)-dione]
8.26 | Cc1c(CN2CCNC2=O)sc2c1c(=O)n([C@H]1C[C@@H]1C)c(=O)n2CC1CCC(F)(F)C1 (single isomer, unassigned) [Example 256]
8.17 | Cc1c(CN2CCNC2=O)sc2c1c(=O)n([C@H]1C[C@@H]1C)c(=O)n2CC1CCC(F)(F)C1 (single isomer, unassigned) [Example 257]
8.39 | COCCn1c(=O)n(C2CC2C)c(=O)c2c(C)c(CN3CCNC3=O)sc21 (single isomer, unassigned) [Example 259, 1-(2-Methoxyethyl)-5-methyl-3-(2-methylcyclopropyl)-6-[(2-oxoimidazolidin-1-yl)methyl]thieno[2,3-d]pyrimidine-2,4(1H,3H)-dione]
7.09 | COCCn1c(=O)n(C2CC2C)c(=O)c2c(C)c(CN3CCNC3=O)sc21 (single isomer, unassigned) [Example 260, 1-(2-Methoxyethyl)-5-methyl-3-(2-methylcyclopropyl)-6-[(2-oxoimidazolidin-1-yl)methyl]thieno[2,3-d]pyrimidine-2,4(1H,3H)-dione]
8.92 | Cc1c(CN2CCNC2=O)sc2c1c(=O)n(C1CC1C)c(=O)n2CCOC(F)(F)F (single isomer, unassigned) [Example 262, 5-Methyl-3-(2-methylcyclopropyl)-6-[(2-oxoimidazolidin-1-yl)methyl]-1-[2-(trifluoromethoxy)ethyl]thieno[2,3-d]pyrimidine-2,4(1H,3H)-dione]
8.96 | Cc1c(CN2CCNC2=O)sc2c1c(=O)n(C1CC1C)c(=O)n2CCOC(F)(F)F (single isomer, unassigned) [Example 263, 5-Methyl-3-(2-methylcyclopropyl)-6-[(2-oxoimidazolidin-1-yl)methyl]-1-[2-(trifluoromethoxy)ethyl]thieno[2,3-d]pyrimidine-2,4(1H,3H)-dione]
8.89 | Cc1c(CN2CCNC2=NC#N)sc2c1c(=O)n(C1CC1C)c(=O)n2CCOC(F)(F)F (single isomer, unassigned) [Example 265, [1-({5-Methyl-3-(2-methylcyclopropyl)-2,4-dioxo-1-[2-(trifluoromethoxy)ethyl]-1,2,3,4-tetrahydrothieno[2,3-d]pyrimidin-6-yl}methyl)imidazolidin-2-ylidene]cyanamide]
9.02 | Cc1c(CN2CCNC2=NC#N)sc2c1c(=O)n(C1CC1C)c(=O)n2CCOC(F)(F)F (single isomer, unassigned) [Example 266, [1-({5-Methyl-3-(2-methylcyclopropyl)-2,4-dioxo-1-[2-(trifluoromethoxy)ethyl]-1,2,3,4-tetrahydrothieno[2,3-d]pyrimidin-6-yl}methyl)imidazolidin-2-ylidene]cyanamide]
8.82 | COC(=O)N=C1NCCN1Cc1sc2c(c1C)c(=O)n(C1CC1C)c(=O)n2CCOC(F)(F)F (single isomer, unassigned) [Example 268, Methyl [1-({5-methyl-3-(2-methylcyclopropyl)-2,4-dioxo-1-[2-(trifluoromethoxy)ethyl]-1,2,3,4-tetrahydrothieno[2,3-d]pyrimidin-6-yl}methyl)imidazolidin-2-ylidene]carbamate]
